Experimental data as given in ChEMBL document CHEMBL1140580, “Synthesis and characterization of trans-4-(4-chlorophenyl)pyrrolidine-3-carboxamides of piperazinecyclohexanes as ligands for the melanocortin-4 receptor” (Bioorg Med Chem Lett, 2007).

What was measured:
Melanocortin receptor 4 [1] = target: T1, Melanocortin receptor 4 (Homo sapiens, UniProt P32245); assay: Agonist activity at MC4R assessed as stimulation of cAMP release relative to alphaMSH; type: functional
Melanocortin receptor 4 [2] = target: T1, Melanocortin receptor 4; assay: Displacement of […]NDPMSH from human MC4R expressed in HEK293 cells; type: cell-based
Melanocortin receptor 4 [3] = target: T1, Melanocortin receptor 4; assay: Agonist activity at MC4R assessed as stimulation of cAMP release; type: functional

T1 sequence (P32245 whole entry): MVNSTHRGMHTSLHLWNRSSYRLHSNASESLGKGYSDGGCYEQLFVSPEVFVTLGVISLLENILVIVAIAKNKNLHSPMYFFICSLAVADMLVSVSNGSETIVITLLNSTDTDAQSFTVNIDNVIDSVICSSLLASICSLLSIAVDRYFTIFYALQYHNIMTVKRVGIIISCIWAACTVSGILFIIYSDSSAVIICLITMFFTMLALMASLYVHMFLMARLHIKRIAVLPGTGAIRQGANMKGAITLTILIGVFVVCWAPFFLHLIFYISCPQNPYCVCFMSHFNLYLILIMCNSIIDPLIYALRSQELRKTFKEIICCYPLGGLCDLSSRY

Compound | Intrinsic activity (Melanocortin receptor 4 [1]) | Ki (Melanocortin receptor 4 [2]) | EC50 (Melanocortin receptor 4 [3])
O=C(C1CCCC1)N1C[C@H](C(=O)N2CCN(C3(CNCc4ccccc4)CCCCC3)CC2)[C@@H](c2ccc(Cl)cc2)C1 | 26% | 0.18 µM | –
CC(C)C(=O)N1C[C@H](C(=O)N2CCN(C3(CNCc4ccccc4)CCCCC3)CC2)[C@@H](c2ccc(Cl)cc2)C1 | 47% | 0.21 µM | –
CC(=O)N(Cc1ccncc1)CC1(N2CCN(C(=O)[C@H]3CN(C(C)C)C[C@@H]3c3ccc(Cl)cc3)CC2)CCCCC1 | – | 1.5 µM | –
CC(C)N1C[C@H](C(=O)N2CCN(C3(CNCc4nccs4)CCCCC3)CC2)[C@@H](c2ccc(Cl)cc2)C1 | 72% | 0.13 µM | 0.74 µM
CC(C)N1C[C@H](C(=O)N2CCN(C3(CNCc4ccoc4)CCCCC3)CC2)[C@@H](c2ccc(Cl)cc2)C1 | 53% | 0.075 µM | 0.48 µM
CC(C)N1C[C@H](C(=O)N2CCN(C3(CNCc4ccccc4C(F)(F)F)CCCCC3)CC2)[C@@H](c2ccc(Cl)cc2)C1 | – | 0.14 µM | –
O=C([C@H]1CN(Cc2ccccc2)C[C@@H]1c1ccc(Cl)cc1)N1CCN(C2(CNCc3ccncc3)CCCCC2)CC1 | – | 0.2 µM | –
O=C([C@H]1CNC[C@@H]1c1ccc(Cl)cc1)N1CCN(C2(CNCc3ccncc3)CCCCC2)CC1 | – | 2.2 µM | –
CC(C)N1C[C@H](C(=O)N2CCN(C3(CNCc4cccc(F)c4)CCCCC3)CC2)[C@@H](c2ccc(Cl)cc2)C1 | 23% | 0.024 µM | –
CC(C)N1C[C@H](C(=O)N2CCN(C3(CNCc4cncnc4)CCCCC3)CC2)[C@@H](c2ccc(Cl)cc2)C1 | 66% | 0.22 µM | 0.22 µM
CC(=O)Nc1ccc(CNCC2(N3CCN(C(=O)[C@H]4CN(C(C)C)C[C@@H]4c4ccc(Cl)cc4)CC3)CCCCC2)cc1 | 27% | 0.029 µM | 0.19 µM
CC(C)N1C[C@H](C(=O)N2CCN(C3(CNCc4cccnc4)CCCCC3)CC2)[C@@H](c2ccc(Cl)cc2)C1 | 72% | 0.035 µM | 0.39 µM
COC(=O)c1ccc(CNCC2(N3CCN(C(=O)[C@H]4CN(C(C)C)C[C@@H]4c4ccc(Cl)cc4)CC3)CCCCC2)cc1 | 21% | 0.032 µM | –
CC(C)N1C[C@H](C(=O)N2CCN(C3(CN(C)Cc4ccncc4)CCCCC3)CC2)[C@@H](c2ccc(Cl)cc2)C1 | – | 0.75 µM | –
COc1ccc(CN(Cc2ccc(OC)cc2)CC2(N3CCN(C(=O)[C@H]4CN(C(C)C)C[C@@H]4c4ccc(Cl)cc4)CC3)CCCCC2)cc1 | – | 2.8 µM | –
COc1ccc(CNCC2(N3CCN(C(=O)[C@H]4CN(C(C)C)C[C@@H]4c4ccc(Cl)cc4)CC3)CCCCC2)cc1 | 17% | 0.0036 µM | –
O=C([C@H]1CN(C2CCOCC2)C[C@@H]1c1ccc(Cl)cc1)N1CCN(C2(CNCc3ccccc3)CCCCC2)CC1 | 70% | 0.029 µM | 1 µM
CC(C)N1C[C@H](C(=O)N2CCN(C3(CNCc4cccs4)CCCCC3)CC2)[C@@H](c2ccc(Cl)cc2)C1 | 58% | 0.037 µM | 0.59 µM
CCN(Cc1ccncc1)CC1(N2CCN(C(=O)[C@H]3CN(C(C)C)C[C@@H]3c3ccc(Cl)cc3)CC2)CCCCC1 | – | 1.3 µM | –
Cc1c(CNCC2(N3CCN(C(=O)[C@H]4CN(C(C)C)C[C@@H]4c4ccc(Cl)cc4)CC3)CCCCC2)cnn1C | 43% | 0.011 µM | 0.05 µM
CC(C)N1C[C@H](C(=O)N2CCN(C3(CNCc4ccc(Cl)cc4)CCCCC3)CC2)[C@@H](c2ccc(Cl)cc2)C1 | 29% | 0.09 µM | 4.2 µM
CC(C)Oc1ccc(CNCC2(N3CCN(C(=O)[C@H]4CN(C(C)C)C[C@@H]4c4ccc(Cl)cc4)CC3)CCCCC2)cc1 | 6% | 0.0021 µM | –
CC(C)N1C[C@H](C(=O)N2CCN(C3(CN)CCCCC3)CC2)[C@@H](c2ccc(Cl)cc2)C1 | – | 1.2 µM | –
COc1ccc(CN(C)CC2(N3CCN(C(=O)[C@H]4CN(C(C)C)C[C@@H]4c4ccc(Cl)cc4)CC3)CCCCC2)cc1 | – | 0.11 µM | –
O=C([C@H]1CN(Cc2ccccc2)C[C@@H]1c1ccc(Cl)cc1)N1CCN(C2(CNCc3ccccc3)CCCCC2)CC1 | 1% | 0.14 µM | –
CC(C)N1C[C@H](C(=O)N2CCN(C3(CNCc4ccc([N+](=O)[O-])cc4)CCCCC3)CC2)[C@@H](c2ccc(Cl)cc2)C1 | – | 0.052 µM | –
CC(N)C(=O)N1C[C@H](C(=O)N2CCN(C3(CNCc4ccccc4)CCCCC3)CC2)[C@@H](c2ccc(Cl)cc2)C1 (some centres undefined) | 3% | 0.43 µM | –
CC(C)N1C[C@H](C(=O)N2CCN(C3(CNC(=O)Cc4ccccc4)CCCCC3)CC2)[C@@H](c2ccc(Cl)cc2)C1 | – | 0.51 µM | –

Compound | Intrinsic activity (Melanocortin receptor 4 [1]) | Ki (Melanocortin receptor 4 [2]) | EC50 (Melanocortin receptor 4 [3])
CC(C)C(N)C(=O)N1C[C@H](C(=O)N2CCN(C3(CNCc4ccccc4)CCCCC3)CC2)[C@@H](c2ccc(Cl)cc2)C1 (some centres undefined) | 0% | 0.67 µM | –
CSc1ccc(CNCC2(N3CCN(C(=O)[C@H]4CN(C(C)C)C[C@@H]4c4ccc(Cl)cc4)CC3)CCCCC2)cc1 | – | 0.027 µM | –
CCNC(=O)N1C[C@H](C(=O)N2CCN(C3(CNCc4ccncc4)CCCCC3)CC2)[C@@H](c2ccc(Cl)cc2)C1 | – | 4.6 µM | –
CCC(=O)N1C[C@H](C(=O)N2CCN(C3(CNCc4ccncc4)CCCCC3)CC2)[C@@H](c2ccc(Cl)cc2)C1 | – | 3.1 µM | –
CCN(Cc1ccc(OC)cc1)CC1(N2CCN(C(=O)[C@H]3CN(C(C)C)C[C@@H]3c3ccc(Cl)cc3)CC2)CCCCC1 | – | 0.19 µM | –
COCC(C)N1C[C@H](C(=O)N2CCN(C3(CNCc4ccccc4)CCCCC3)CC2)[C@@H](c2ccc(Cl)cc2)C1 (some centres undefined) | 7% | 0.1 µM | –
COc1ccc(CN(CC(C)C)CC2(N3CCN(C(=O)[C@H]4CN(C(C)C)C[C@@H]4c4ccc(Cl)cc4)CC3)CCCCC2)cc1 | – | 1.8 µM | –
CC(=O)N1C[C@H](C(=O)N2CCN(C3(CNCc4ccccc4)CCCCC3)CC2)[C@@H](c2ccc(Cl)cc2)C1 | 13% | 0.19 µM | –
COCC(C)NCC1(N2CCN(C(=O)[C@H]3CN(C(C)C)C[C@@H]3c3ccc(Cl)cc3)CC2)CCCCC1 (some centres undefined) | – | 0.31 µM | –
NCCC(=O)N1C[C@H](C(=O)N2CCN(C3(CNCc4ccccc4)CCCCC3)CC2)[C@@H](c2ccc(Cl)cc2)C1 | 9% | 0.11 µM | –
CC(C)N1C[C@H](C(=O)N2CCN(C3(CNCc4nccn4C)CCCCC3)CC2)[C@@H](c2ccc(Cl)cc2)C1 | 31% | 0.39 µM | –
CC(C)N1C[C@H](C(=O)N2CCN(C3(CNCc4ccc5c(c4)OCO5)CCCCC3)CC2)[C@@H](c2ccc(Cl)cc2)C1 | 7% | 0.0083 µM | –
CC(C)N1C[C@H](C(=O)N2CCN(C3(CNCc4ccc(C(F)(F)F)cc4)CCCCC3)CC2)[C@@H](c2ccc(Cl)cc2)C1 | 16% | 0.13 µM | –
CC(C)N1C[C@H](C(=O)N2CCN(C3(CNCC4CCCCC4)CCCCC3)CC2)[C@@H](c2ccc(Cl)cc2)C1 | – | 0.3 µM | –
CCC(=O)N1C[C@H](C(=O)N2CCN(C3(CNCc4ccccc4)CCCCC3)CC2)[C@@H](c2ccc(Cl)cc2)C1 | 19% | 0.21 µM | –
CS(=O)(=O)N1C[C@H](C(=O)N2CCN(C3(CNCc4ccncc4)CCCCC3)CC2)[C@@H](c2ccc(Cl)cc2)C1 | – | 3.4 µM | –
CC(C)CN(Cc1ccncc1)CC1(N2CCN(C(=O)[C@H]3CN(C(C)C)C[C@@H]3c3ccc(Cl)cc3)CC2)CCCCC1 | – | 2.7 µM | –
CC(C)N1C[C@H](C(=O)N2CCN(C3(CNS(=O)(=O)Cc4ccccc4)CCCCC3)CC2)[C@@H](c2ccc(Cl)cc2)C1 | 40% | 0.34 µM | –
CC(C)N1C[C@H](C(=O)N2CCN(C3(CNCCc4ccccn4)CCCCC3)CC2)[C@@H](c2ccc(Cl)cc2)C1 | – | 0.69 µM | –
CC(C)N1C[C@H](C(=O)N2CCN(C3(CNCc4ccccc4OC(F)(F)F)CCCCC3)CC2)[C@@H](c2ccc(Cl)cc2)C1 | – | 0.11 µM | –
COc1ccc(CNCC2(N3CCN(C(=O)[C@H]4CN(C(C)C)C[C@@H]4c4ccc(Cl)cc4)CC3)CCCCC2)c(OC)c1 | 29% | 0.016 µM | –
CC(C)N1C[C@H](C(=O)N2CCN(C3(CNCc4cc5ccccc5n4C)CCCCC3)CC2)[C@@H](c2ccc(Cl)cc2)C1 | – | 1.2 µM | –
CC(=O)N1C[C@H](C(=O)N2CCN(C3(CNCc4ccncc4)CCCCC3)CC2)[C@@H](c2ccc(Cl)cc2)C1 | – | 3 µM | –
COc1ccc(CN(CC2(N3CCN(C(=O)[C@H]4CN(C(C)C)C[C@@H]4c4ccc(Cl)cc4)CC3)CCCCC2)OC)cc1 | – | 1.3 µM | –
CNCC(=O)N1C[C@H](C(=O)N2CCN(C3(CNCc4ccccc4)CCCCC3)CC2)[C@@H](c2ccc(Cl)cc2)C1 | 8% | 0.1 µM | –
CC(C)N1C[C@H](C(=O)N2CCN(C3(CNS(=O)(=O)c4ccccc4)CCCCC3)CC2)[C@@H](c2ccc(Cl)cc2)C1 | 20% | 0.33 µM | –
CCCC(=O)N1C[C@H](C(=O)N2CCN(C3(CNCc4ccccc4)CCCCC3)CC2)[C@@H](c2ccc(Cl)cc2)C1 | 8% | 0.19 µM | –
